From PubChem BioAssay (NCI)
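Tested at 5 concentrations; 48 h exposure; 96-well plates; endpoints linearly interpolated, else capped at highest concentration. GI50: concentration for 50% inhibition of growth. TGI: concentration producing complete growth inhibition.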

How the values were obtained:
Assay in all cases: growth of human tumour cells (NCI), 48 h
[1] = system: HCT-116 colon
[2] = system: KM12 colon
[3] = system: OVCAR-3 ovarian
[4] = system: NCI-H522 lung
[5] = system: CCRF-CEM leukemia
[6] = system: HT29 colon
[7] = system: SF-268 CNS
[8] = system: 786-0 renal
[9] = system: MDA-MB-231 breast
[10] = system: NCI-H226 lung

## CC(C)(C)[Si](C)(C)OC1[C@@H](COC(=O)NC(=O)CCl)O[C@@H](n2cnc3c(N)ncnc32)[C@H]1O[Si](C)(C)C(C)(C)C (stereo partly drawn)
[1]
  GI50: 1530 nM
  TGI: 5150 nM
[2]
  GI50: 2550 nM
  TGI: 6480 nM
[3]
  GI50: 2660 nM
  TGI: 8320 nM
[4]
  GI50: 122 nM
  TGI: 312 nM
[5]
  GI50: 232 nM
  TGI: 931 nM
[6]
  GI50: 2590 nM
  TGI: 8530 nM
[7]
  GI50: 1930 nM
  TGI: 5230 nM
[8]
  GI50: 1050 nM
  TGI: 2330 nM
[9]
  GI50: 1120 nM
  TGI: 2760 nM
[10]
  GI50: 1130 nM
  TGI: 2300 nM

## CC12O[C@H](C[C@@H](OC(=O)CCC(=O)O)[C@H]1O)n1c3ccccc3c3c4c(c5c6ccccc6n2c5c31)C(=O)NC4=O
[1]
  GI50: 1500 nM
  TGI: 9800 nM
[2]
  GI50: 285 nM
  TGI: 11500 nM
[3]
  GI50: 1320 nM
  TGI: 14000 nM
[4]
  GI50: 602 nM
  TGI: 6920 nM
[5]
  GI50: 1570 nM
  TGI: 13400 nM
[6]
  GI50: 1450 nM
  TGI: 17700 nM
[7]
  GI50: 3210 nM
  TGI: 23900 nM
[8]
  GI50: 2140 nM
  TGI: 11300 nM
[9]
  GI50: 6300 nM
  TGI: 16200 nM
[10]
  GI50: 738 nM
  TGI: 9710 nM

## CCOC(=O)/C=C1/SC(=Nc2ccc(C#N)cc2)N(Cc2ccco2)C1=O
[1]
  GI50: 2060 nM
  TGI: 4970 nM
[2]
  GI50: 2130 nM
  TGI: 5010 nM
[3]
  GI50: 1820 nM
  TGI: 3520 nM
[4]
  GI50: 1830 nM
  TGI: 4120 nM
[5]
  GI50: 3170 nM
  TGI: > 100000 nM
[6]
  GI50: 2110 nM
  TGI: 4610 nM
[7]
  GI50: 3380 nM
  TGI: 13700 nM
[8]
  GI50: 1930 nM
  TGI: 4170 nM
[9]
  GI50: 4290 nM
  TGI: 23500 nM
[10]
  GI50: 2220 nM
  TGI: 4760 nM

## CSc1nc2c(c(=O)n1C)C(c1ccccc1)C1=C(N2)/C(=C/c2ccccc2)CCC1 (stereo not drawn)
[1]
  GI50: 3410 nM
  TGI: 14300 nM
[2]
  GI50: 18200 nM
  TGI: > 100000 nM
[3]
  GI50: 4410 nM
  TGI: > 100000 nM
[4]
  GI50: 5930 nM
  TGI: > 100000 nM
[5]
  GI50: 4620 nM
  TGI: > 100000 nM
[6]
  GI50: 3580 nM
  TGI: 71000 nM
[7]
  GI50: 10700 nM
  TGI: > 100000 nM
[8]
  GI50: 11700 nM
  TGI: 56400 nM
[9]
  GI50: 17400 nM
  TGI: > 100000 nM
[10]
  GI50: 18400 nM
  TGI: > 100000 nM

## C=CCSC(C)=O
[1]
  TGI: > 100000 nM
[2]
  TGI: > 100000 nM
[3]
  TGI: > 100000 nM
[4]
  TGI: > 100000 nM
[5]
  TGI: > 100000 nM
[6]
  TGI: > 100000 nM
[7]
  TGI: > 100000 nM
[8]
  TGI: > 100000 nM
[9]
  TGI: > 100000 nM
[10]
  TGI: > 100000 nM

## COc1ccc2nc3ccccc3c(NCCNCC(C)O)c2c1 (stereo not drawn)
[1]
  GI50: 241 nM
  TGI: 1410 nM
[2]
  GI50: 536 nM
  TGI: 14200 nM
[3]
  GI50: 449 nM
  TGI: 9400 nM
[4]
  GI50: 427 nM
  TGI: 2090 nM
[5]
  GI50: 436 nM
  TGI: 3470 nM
[6]
  GI50: 323 nM
  TGI: 1900 nM
[7]
  GI50: 583 nM
  TGI: 11100 nM
[8]
  GI50: 306 nM
  TGI: 1830 nM
[9]
  GI50: 310 nM
  TGI: 1850 nM
[10]
  GI50: 708 nM
  TGI: 4790 nM

## COc1ccc(-c2c(-c3ccc(C#N)c(F)c3)nc(N3CCC(N)CC3)n(C)c2=O)cc1F
[1]
  GI50: 13100 nM
  TGI: > 100000 nM
[2]
  GI50: 20000 nM
  TGI: 41500 nM
[3]
  GI50: 21700 nM
  TGI: 77400 nM
[4]
  GI50: 13600 nM
  TGI: 30700 nM
[5]
  GI50: 17600 nM
  TGI: 53000 nM
[6]
  GI50: 10400 nM
  TGI: 30200 nM
[7]
  GI50: 20400 nM
  TGI: 87000 nM
[8]
  GI50: 11700 nM
  TGI: 24700 nM
[9]
  GI50: 12500 nM
  TGI: 26700 nM
[10]
  GI50: 50000 nM
  TGI: > 100000 nM

## CN1CCN(c2ccc(NC3=CC(=O)c4ncncc4C3=O)cc2)CC1
[1]
  GI50: 229 nM
  TGI: 545 nM
[2]
  GI50: 1670 nM
  TGI: 4350 nM
[3]
  GI50: 313 nM
[4]
  GI50: 597 nM
  TGI: 1720 nM
[5]
  GI50: 331 nM
  TGI: > 100000 nM
[6]
  GI50: 1720 nM
  TGI: 5980 nM
[7]
  GI50: 1770 nM
  TGI: 5730 nM
[8]
  GI50: 248 nM
  TGI: 645 nM
[9]
  GI50: 250 nM
  TGI: 766 nM
[10]
  GI50: 1510 nM
  TGI: 3470 nM

## CC/C=C\C[C@H]1C/C=C2/C(=O)C(Cl)=C[C@@H]2C/C=C\CCCC(=O)O1
[1]
  GI50: 205 nM
  TGI: 859 nM
[2]
  GI50: 403 nM
  TGI: 1070 nM
[3]
  GI50: 153 nM
  TGI: 677 nM
[4]
  GI50: 156 nM
  TGI: 556 nM
[5]
  GI50: 143 nM
  TGI: 2640 nM
[6]
  GI50: 325 nM
  TGI: 790 nM
[7]
  GI50: 496 nM
  TGI: 2390 nM
[8]
  GI50: 521 nM
  TGI: 1190 nM
[9]
  GI50: 733 nM
  TGI: 4610 nM
[10]
  GI50: 524 nM
  TGI: 1560 nM

## C(=N\Nc1ccc2ccccc2n1)/c1ccccn1
[1]
  GI50: 368 nM
  TGI: 13900 nM
[2]
  GI50: 458 nM
  TGI: 16200 nM
[3]
  GI50: 351 nM
[4]
  GI50: 319 nM
  TGI: 11800 nM
[5]
  GI50: 371 nM
  TGI: > 100000 nM
[6]
  GI50: 536 nM
  TGI: > 40600 nM
[7]
  GI50: 410 nM
  TGI: > 33500 nM
[8]
  GI50: 317 nM
[9]
  GI50: 695 nM
  TGI: > 100000 nM
[10]
  GI50: 508 nM
  TGI: 19000 nM

## COC(=O)c1cc(-c2ccc(S(C)(=O)=O)cc2)[nH]c1N/N=C/c1c(Cl)cccc1Cl
[1]
  GI50: 454 nM
  TGI: > 47900 nM
[2]
  GI50: 386 nM
  TGI: 10000 nM
[3]
  GI50: 273 nM
  TGI: 704 nM
[4]
  GI50: 988 nM
[5]
  GI50: 759 nM
[6]
  GI50: 373 nM
  TGI: 4450 nM
[7]
  GI50: 587 nM
  TGI: > 56400 nM
[8]
  GI50: 747 nM
  TGI: > 32200 nM
[9]
  GI50: 1730 nM
  TGI: > 100000 nM
[10]
  GI50: 1020 nM
  TGI: > 22900 nM

## CCN1C(=O)N(CC)C2C1N=C(SC)N2/N=C/C=C/c1ccccc1OC (stereo not drawn)
[1]
  GI50: 375 nM
  TGI: 24800 nM
[2]
  GI50: 404 nM
  TGI: > 39600 nM
[3]
  GI50: 375 nM
  TGI: > 54200 nM
[4]
  GI50: 308 nM
[5]
  GI50: 379 nM
  TGI: > 48200 nM
[6]
  GI50: 357 nM
[7]
  GI50: 877 nM
  TGI: > 57700 nM
[8]
  GI50: 538 nM
  TGI: 31700 nM
[9]
  GI50: 348 nM
  TGI: 10800 nM
[10]
  GI50: 2140 nM
  TGI: > 52300 nM

## COc1cc(-c2ccc[nH]2)[nH]c1/C=C1\N=C(C)C(CC(=O)OCC(C)(C)C)=C1C
[1]
  GI50: 181 nM
  TGI: 1150 nM
[2]
  GI50: 267 nM
  TGI: 1760 nM
[3]
  GI50: 254 nM
  TGI: 1150 nM
[4]
  GI50: 230 nM
  TGI: 1510 nM
[5]
  GI50: 62.5 nM
  TGI: 2120 nM
[6]
  GI50: 172 nM
  TGI: 1170 nM
[7]
  GI50: 288 nM
  TGI: 1840 nM
[8]
  GI50: 300 nM
  TGI: 1530 nM
[9]
  GI50: 104 nM
  TGI: 1530 nM
[10]
  GI50: 176 nM
  TGI: 736 nM
